{"source": "ChEMBL document CHEMBL3046833", "about": "“Six new triterpenoid saponins from the leaves of Ilex oblonga and their inhibitory activities against TMV replication” (Chem Pharm Bull (Tokyo), 2007)", "key": {"[1]": {"tested_on": "Tobacco mosaic virus", "assay": "Antiviral activity against Tobacco mosaic virus (TMV) assessed as inhibition of viral replication at 0.2 mg/ml after 48 hr by leaf disk method relative to control", "assay_type": "functional"}, "[2]": {"tested_on": "Tobacco mosaic virus", "assay": "Antiviral activity against Tobacco mosaic virus (TMV) assessed as inhibition of viral replication at 0.4 mg/ml after 48 hr by leaf disk method relative to control", "assay_type": "functional"}, "[3]": {"tested_on": "Tobacco mosaic virus", "assay": "Antiviral activity against Tobacco mosaic virus (TMV) assessed as inhibition of viral replication at 0.025 mg/ml after 48 hr by leaf disk method relative to control", "assay_type": "functional"}, "[4]": {"tested_on": "Tobacco mosaic virus", "assay": "Antiviral activity against Tobacco mosaic virus (TMV) assessed as inhibition of viral replication at 0.05 mg/ml after 48 hr by leaf disk method relative to control", "assay_type": "functional"}, "[5]": {"tested_on": "Tobacco mosaic virus", "assay": "Antiviral activity against Tobacco mosaic virus (TMV) assessed as inhibition of viral replication at 0.1 mg/ml after 48 hr by leaf disk method relative to control", "assay_type": "functional"}, "[6]": {"tested_on": "Tobacco mosaic virus", "assay": "Antiviral activity against Tobacco mosaic virus (TMV) assessed as inhibition of viral replication after 48 hr by leaf disk method", "assay_type": "functional, organism-based"}}, "data": [{"smiles": "C=C1CC[C@]2(C(=O)O[C@@H]3O[C@H](CO)[C@@H](O)[C@H](O)[C@H]3O)CC[C@]3(C)C(=CC[C@@H]4[C@@]5(C)CC[C@H](O[C@@H]6OC[C@@H](O)[C@H](O)[C@H]6O)C(C)(C)[C@@H]5CC[C@]43C)C2[C@]1(C)O", "note": "(stereo not given in full) [Oblonganoside F]", "values": [{"measurement": "inhibition at 200 µg/mL", "setting": "[1]", "result": 39.7, "unit": "%"}]}, {"smiles": "CC1=C(C)[C@H]2C3=CC[C@@H]4[C@@]5(C)CC[C@H](O[C@@H]6OC[C@@H](O)[C@H](O)[C@H]6O)C(C)(C)[C@@H]5CC[C@@]4(C)[C@]3(C)CC[C@@]2(C(=O)O[C@@H]2O[C@H](CO)[C@@H](O)[C@H](O)[C@H]2O)CC1", "note": "[Oblonganoside B]", "values": [{"measurement": "inhibition at 200 µg/mL", "setting": "[1]", "result": 56.4, "unit": "%"}]}, {"smiles": "CC1=C2C3=CC[C@@H]4[C@@]5(C)CC[C@H](O)[C@@](C)(CO)[C@@H]5CC[C@@]4(C)[C@]3(C)CC[C@@]2(C(=O)O[C@@H]2O[C@H](CO)[C@@H](O)[C@H](O)[C@H]2O)CC[C@H]1C", "values": [{"measurement": "inhibition at 200 µg/mL", "setting": "[1]", "result": 47.3, "unit": "%"}]}, {"smiles": "C=C1CC[C@]2(C(=O)O[C@@H]3O[C@H](CO)[C@@H](O)[C@H](O)[C@H]3O)CC[C@]3(C)C(=CC[C@@H]4[C@@]5(C)CC[C@H](O)[C@@](C)(CO)[C@@H]5CC[C@]43C)C2[C@]1(C)O", "note": "(stereo not given in full) [Oblonganoside E]", "values": [{"measurement": "inhibition at 200 µg/mL", "setting": "[1]", "result": 21.5, "unit": "%"}]}, {"smiles": "CC1=C2C3=CC[C@@H]4[C@@]5(C)CC[C@H](O[C@@H]6OC[C@@H](O)[C@H](O)[C@H]6O)C(C)(C)[C@@H]5CC[C@@]4(C)[C@]3(C)CC[C@@]2(C(=O)O[C@@H]2O[C@H](CO)[C@@H](O)[C@H](O)[C@H]2O)CC[C@H]1C", "values": [{"measurement": "inhibition at 200 µg/mL", "setting": "[1]", "result": 33, "unit": "%"}]}, {"smiles": "CC1=C(C)[C@H]2C3=CC[C@@H]4[C@@]5(C)CC[C@H](O)[C@@](C)(CO)[C@@H]5CC[C@@]4(C)[C@]3(C)CC[C@@]2(C(=O)O[C@@H]2O[C@H](CO)[C@@H](O)[C@H](O)[C@H]2O)CC1", "values": [{"measurement": "inhibition at 200 µg/mL", "setting": "[1]", "result": 41.1, "unit": "%"}]}, {"smiles": "CC1=C(C)[C@H]2C3=CC[C@@H]4[C@@]5(C)CC[C@@H]6O[C@H](CO)OC[C@@]6(C)[C@@H]5CC[C@@]4(C)[C@]3(C)CC[C@@]2(C(=O)O[C@@H]2O[C@H](CO)[C@@H](O)[C@H](O)[C@H]2O)CC1", "note": "[Oblonganoside A]", "values": [{"measurement": "Imax", "setting": "[2]", "result": 87.3, "unit": "%"}, {"measurement": "inhibition at 25 µg/mL", "setting": "[3]", "result": 10.1, "unit": "%"}, {"measurement": "inhibition at 50 µg/mL", "setting": "[4]", "result": 30.1, "unit": "%"}, {"measurement": "inhibition at 200 µg/mL", "setting": "[1]", "result": 80.3, "unit": "%"}, {"measurement": "inhibition at 100 µg/mL", "setting": "[5]", "result": 61.9, "unit": "%"}, {"measurement": "EC50", "setting": "[6]", "result": 74, "unit": "µg/mL"}]}, {"smiles": "CC1=C2C3=CC[C@@H]4[C@@]5(C)CC[C@H](O[C@@H]6OC[C@@H](O)[C@H](O)[C@H]6O)[C@@](C)(CO)[C@@H]5CC[C@@]4(C)[C@]3(C)CC[C@@]2(C(=O)O[C@@H]2O[C@H](CO)[C@@H](O)[C@H](O)[C@H]2O)CC[C@H]1C", "note": "[OBLONGANOSIDE C]", "values": [{"measurement": "inhibition at 200 µg/mL", "setting": "[1]", "result": 38.6, "unit": "%"}]}, {"smiles": "C=C1C2C3=CC[C@@H]4[C@@]5(C)CC[C@H](O[C@@H]6OC[C@@H](O)[C@H](O)[C@H]6O)C(C)(C)[C@@H]5CC[C@@]4(C)[C@]3(C)CC[C@@]2(C(=O)O[C@@H]2O[C@H](CO)[C@@H](O)[C@H](O)[C@H]2O)CC[C@H]1C", "note": "(stereo not given in full) [OBLONGANOSIDE D]", "values": [{"measurement": "inhibition at 200 µg/mL", "setting": "[1]", "result": 37.7, "unit": "%"}]}, {"smiles": "C=C1C2C3=CC[C@@H]4[C@@]5(C)CC[C@H](O)[C@@](C)(CO)[C@@H]5CC[C@@]4(C)[C@]3(C)CC[C@@]2(C(=O)O[C@@H]2O[C@H](CO)[C@@H](O)[C@H](O)[C@H]2O)CC[C@H]1C", "note": "(stereo not given in full)", "values": [{"measurement": "inhibition at 200 µg/mL", "setting": "[1]", "result": 29.6, "unit": "%"}]}]}
